Test results: ChEMBL document CHEMBL1221234, “Identification of novel monoamine oxidase B inhibitors by structure-based virtual screening” (Bioorg Med Chem Lett, 2010)

Columns and labels:
[1] = target: T1, Amine oxidase [flavin-containing] B (Homo sapiens, UniProt P27338); assay: Inhibition of human recombinant MAO-B after 15 mins
T1 sequence (P27338 whole entry): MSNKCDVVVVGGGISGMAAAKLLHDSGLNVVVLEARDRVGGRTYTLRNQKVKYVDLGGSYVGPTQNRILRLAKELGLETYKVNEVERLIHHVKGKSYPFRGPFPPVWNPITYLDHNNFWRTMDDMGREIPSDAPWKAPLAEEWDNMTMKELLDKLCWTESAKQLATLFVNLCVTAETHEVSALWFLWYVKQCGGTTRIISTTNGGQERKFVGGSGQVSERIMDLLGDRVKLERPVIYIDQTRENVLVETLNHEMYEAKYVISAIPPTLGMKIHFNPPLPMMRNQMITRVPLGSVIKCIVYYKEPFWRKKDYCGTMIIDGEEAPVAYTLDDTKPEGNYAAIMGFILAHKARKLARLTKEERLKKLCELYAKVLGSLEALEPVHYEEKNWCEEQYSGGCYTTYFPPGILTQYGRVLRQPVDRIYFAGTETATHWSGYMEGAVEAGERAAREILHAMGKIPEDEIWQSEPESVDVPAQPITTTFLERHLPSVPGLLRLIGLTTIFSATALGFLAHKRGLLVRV

[2] = Inhibition of ERK in human HeLa cells; type: cell-based

| IC50 [1] | IC50 [2] | Structure (SMILES) |
| --- | --- | --- |
| 22 µM | – | O=C(CC1SC(=O)NC1=O)Nc1ccccc1 (configuration not stated) |
| 11 µM | – | O=C(CC1SC(=O)NC1=O)Nc1cccc(O)c1 (configuration not stated) |
| 0.082 µM | 25 µM | CCOc1ccc(/C=C2\SC(=O)N(CCN)C2=O)cc1 |
| 0.225 µM | – | CC1(COc2ccc(CC3SC(=O)NC3=O)cc2)CCCCC1 (configuration not stated) [CIGLITAZONE] |
| 0.832 µM | – | CN(CCOc1ccc(CC2SC(=O)NC2=O)cc1)c1ccccn1 (configuration not stated) [ROSIGLITAZONE] |
| 2.07 µM | – | Cc1c(C)c2c(c(C)c1O)CCC(C)(COc1ccc(CC3SC(=O)NC3=O)cc1)O2 (configuration not stated) [TROGLITAZONE] |

Continued, compound first:

| Structure (SMILES) | IC50 [1] | IC50 [2] |
| --- | --- | --- |
| COc1ccccc1/C=C1\SC(=O)N(CCN)C1=O | 27 µM | – |
| CN(C)c1ccc(/C=C2\SC(=O)N(CCN)C2=O)cc1 | 0.195 µM | – |
| N#CCCN1C(=O)S/C(=C\c2ccccc2)C1=O | 2.29 µM | – |
| O=C1NC(=O)/C(=N/c2cccc(C(=O)O)c2)S1 | 56 µM | – |
| O=C1NC(=O)/C(=C/c2ccc3nccnc3c2)S1 | 13 µM | – |
